Measurements published in patent US10590143B2, “Herbicidally active (alkynyl-phenyl)-substituted cyclic dione compounds and derivatives thereof” (Syngenta Limited, priority 2013, dated 2020).

Assays:
Experiment in all cases: Biological Example 2 glasshouse assay for herbicidal activity
Format in all cases: in vivo
[1] = test system: Beta vulgaris (BEAVA, sugarbeet); conditions: post-emergence, 360 h, 14 or 15 DAA, 0.2% v/v X-77, read-out: percentage phytotoxicity BEAVA
Outline: (§1)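 Visual % phytotoxicity (100% = total damage, 0% = none), scored 14 or 15 DAA post-emergence or 20 DAA pre-emergence. The spray was the IF50 emulsifiable formulation in aqueous 0.2% v/v X-77 at rate-dependent concentration. Glasshouse: 24/18 °C day/night for warm-season BRAPL, 20/16 °C for cool-season wheat, ALOMY and sugarbeet.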

[2] = test system: Triticum aestivum (TRZAW, winter wheat); conditions: post-emergence, 360 h, 14 or 15 DAA, 0.2% v/v X-77, read-out: percentage phytotoxicity TRZAW
Outline: as §1

[3] = test system: Digitaria sanguinalis (DIGSA); conditions: post-emergence, 360 h, 14 or 15 DAA, 0.2% v/v X-77, read-out: percentage phytotoxicity DIGSA
Outline: (§2)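 Glasshouse pots sprayed pre-emergence (1 day after sowing) or post-emergence (~12 days) with active ingredient formulated as IF50 in water plus 0.2% v/v X-77; warm species 24/18 °C, cool species 20/16 °C, 16 h light, 65% humidity. Visual % phytotoxicity scored 14–15 DAA (post) or 20 DAA (pre).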

[4] = test system: Setaria faberi (SETFA); conditions: post-emergence, 360 h, 14 or 15 DAA, 0.2% v/v X-77, read-out: percentage phytotoxicity SETFA
Outline: as §2

[5] = test system: Brassica napus (BRSNN, rape); conditions: Brassica napus, 360 h, post-emergence, 14 or 15 DAA, 0.2% v/v X-77, read-out: percentage phytotoxicity BRSNN
Outline: as §2

[6] = test system: Alopecurus myosuroides (ALOMY); conditions: post-emergence, 360 h, 14 or 15 DAA, 0.2% v/v X-77, read-out: percentage phytotoxicity ALOMY
Outline: as §1

[7] = test system: Avena fatua (AVEFA); conditions: post-emergence, 360 h, 14 or 15 DAA, 0.2% v/v X-77, read-out: percentage phytotoxicity AVEFA
Outline: as §2

[8] = test system: Zea mays (ZEAMX, corn, maize, e.g. volunteer corn); conditions: Zea mays, post-emergence, 360 h, 14 or 15 DAA, 0.2% v/v X-77, read-out: percentage phytotoxicity ZEAMX
Outline: as §2

[9] = test system: SORVU (Sorghum bicolor (L.) Moench ssp. Bicolor, or Sorghum vulgare Pers.); conditions: post-emergence, 360 h, 14 or 15 DAA, 0.2% v/v X-77, read-out: percentage phytotoxicity SORVU
Outline: as §2

[10] = test system: Brachiaria plantaginea (BRAPL); conditions: Urochloa plantaginea, post-emergence, 360 h, 14 or 15 DAA, 0.2% v/v X-77, read-out: percentage phytotoxicity BRAPL
Outline: as §1

[11] = test system: Glycine max (GLXMA, soybean); conditions: post-emergence, 360 h, 14 or 15 DAA, 0.2% v/v X-77, read-out: percentage phytotoxicity GLXMA
Outline: as §2

[12] = test system: Echinochloa crus-galli (ECHCG); conditions: Echinochloa crus-galli, post-emergence, 360 h, 14 or 15 DAA, 0.2% v/v X-77, read-out: percentage phytotoxicity ECHCG
Outline: as §2

[13] = test system: Lolium perenne (LOLPE); conditions: Lolium perenne, post-emergence, 360 h, 14 or 15 DAA, 0.2% v/v X-77, read-out: percentage phytotoxicity LOLPE
Outline: as §2

Compound	plant injury at 30 g/ha [1]	plant injury at 250 g/ha [1]	plant injury at 30 g/ha [2]	pest or weed control at 30 g/ha [3]	pest or weed control at 250 g/ha [3]	pest or weed control at 30 g/ha [4]	pest or weed control at 250 g/ha [4]	plant injury at 30 g/ha [5]	plant injury at 250 g/ha [5]	pest or weed control at 30 g/ha [6]	pest or weed control at 250 g/ha [6]	pest or weed control at 30 g/ha [7]	pest or weed control at 250 g/ha [7]	pest or weed control at 30 g/ha [8]	pest or weed control at 250 g/ha [8]	pest or weed control at 30 g/ha [9]	pest or weed control at 250 g/ha [9]	pest or weed control at 30 g/ha [10]	pest or weed control at 250 g/ha [10]	plant injury at 30 g/ha [11]	other results
CC#Cc1cc(F)c(C2=C(OC(=O)OC(C)C)C3CCC(C3)C2=O)c(OC)c1 (centres unmarked) [Compound P3]	0%	0%	80%	100%	100%	100%	100%	10%	80%	70%	90%	90%	90%	100%	100%	100%	100%	100%	100%	0%	plant injury at 250 g/ha [2]: 90%; plant injury at 250 g/ha [11]: 0%; pest or weed control at 30 g/ha [12]: 100%; pest or weed control at 250 g/ha [12]: 100%; pest or weed control at 30 g/ha [13]: 90%; pest or weed control at 250 g/ha [13]: 100%
CC#Cc1cc(F)c(C2=C(OC(=O)SCC)C3CCC(C3)C2=O)c(OC)c1 (centres unmarked) [Compound P4]	0%	0%	80%	80%	100%	90%	100%	50%	80%	80%	100%	90%	100%	100%	100%	100%	100%	100%	100%	10%	plant injury at 250 g/ha [2]: 100%; plant injury at 250 g/ha [11]: 20%; pest or weed control at 30 g/ha [12]: 90%; pest or weed control at 250 g/ha [12]: 100%; pest or weed control at 30 g/ha [13]: 90%; pest or weed control at 250 g/ha [13]: 100%
CC#Cc1cc(F)c(C2=C(OC(=O)c3ccccc3)C3CCC(C3)C2=O)c(OC)c1 (centres unmarked) [Compound P5, [3-(2-fluoro-6-methoxy-4-prop-1-ynyl-phenyl)-4-oxo-2-bicyclo[3.2.1]oct-2-enyl]benzoate]	0%	0%	50%	100%	100%	80%	90%	50%	80%	70%	90%	80%	90%	90%	100%	80%	100%	90%	100%	0%	plant injury at 250 g/ha [11]: 0%; pest or weed control at 30 g/ha [12]: 100%; pest or weed control at 250 g/ha [12]: 100%; pest or weed control at 30 g/ha [13]: 80%; pest or weed control at 250 g/ha [13]: 100%
